Data on one compound can be found in patent publication US6908927B2, “Pyridopyranoazepine derivatives, their preparation and their therapeutic application” (Sanofi-Synthelabo, priority 1999, dated 2005).

The melting point is the temperature of the solid-liquid transition.

Structures can show the parent of a compound that is named as a salt.

On to `CCC1c2ncccc2OC2CCN3CCC21C3` (racemic) (as salt: HBr), for which the melting point is 170 °C (dec.).
